Measured values reported in patent publication US7851466B2, “Pyrimidine compounds and uses thereof” (Synta Pharmaceuticals Corp., priority 2004, dated 2010).

Columns and labels:
[1] = system: adjuvant arthritis (AA) in female Lewis rats; test: Treatment of adjuvant arthritis in rats; type: in vivo, rat; conditions: oral administration once a day for 12 days; experiments repeated four times
Protocol: Treatment of adjuvant arthritis in rats: Adjuvant arthritis (AA) was induced in female Lewis rats by the intracutaneous injection (base of the tail) of 0.1 mL of a 10 mg/mL bacterial suspension made from ground, heat-killed Mycobacterium tuberculosis H37Ra suspended in incomplete Freund's adjuvant. Rats were given a test compound orally once a day for 12 days, starting the day following the induction. The development of polyarthritis was monitored daily by macroscopic inspection and assignment of an arthritis index to each animal, during the critical period (days 10 to 25 post-immunization).
The intensity of polyarthritis was scored according to the following scheme: (a) Grade each paw from 0 to 3 based on erythema, swelling, and deformity of the joints: 0 for no erythema or swelling; 0.5 if swelling is detectable in at least one joint; 1 for mild swelling and erythema; 2 for swelling and erythema of both tarsus and carpus; and 3 for ankylosis and bony deformity. Maximum score for all 4 paws was thus 12. […]
Experiments with the AA model were repeated four times. […] The arthritis score used in this model was a reflection of the inflammatory state of the structures monitored and the results therefore show the ability of the test compound to provide relief for this aspect of the pathology.

[2] = system: DNBS-induced distal colitis in Wistar derived rats; test: Dinitrobenzene sulfonic acid-induced inflammatory bowel syndrome model rats; type: in vivo, rat; conditions: oral, 24 and 2 hours before DNBS instillation and then daily for 5 days
Protocol: Treatment of Crohn's disease in dinitrobenzene sulfonic acid-induced inflammatory bowel syndrome model rats: Wistar derived male or female rats weighing 200±20 g and fasted for 24 hours were used. Distal colitis was induced by intra-colonic instillation of 2,4-dinitrobenzene sulfonic acid (DNBS, 25 mg in 0.5 mL ethanol 30%) after which air (2 mL) was gently injected through the cannula to ensure that the solution remained in the colon. A test compound and/or vehicle was administered orally 24 and 2 hours before DNBS instillation and then daily for 5 days. One control group was similarly treated with vehicle alone while the other is treated with vehicle plus DNBS. The animals were sacrificed 24 hours after the final dose of test compound administration and each colon was removed and weighed. Colon-to-body weight ratio was then calculated for each animal according to the formula: Colon (g)/BW×100. The “Net” increase in ratio of Vehicle-control+DNBS group relative to Vehicle-control group was used as a base for comparison with test substance treated groups and expressed as “% Deduction.” Pyrimidine compounds of this invention (e.g., Compound 12) reproducibly had about 30% deduction. A 30% or more reduction in colon-to-body weight ratio, relative to the vehicle treated control group, was considered significant.
These experiments were repeated three times and the effects were reproducible.

[3] = system: colitis in T cell-reconstituted C.B-17 SCID mice; test: CD4+ CD45Rb high T cell-reconstituted SCID colitis model mice; type: in vivo, mouse
Protocol: Treatment of Crohn's disease in CD4^+ CD45Rb^high T cell-reconstituted SCID colitis model mice: Spleen cells were prepared from normal female BALB/c mice. For cell purification, the following anti-mouse antibodies were used to label non-CD4^+ T cells: B220 (RA3-6B2), CD11b (M1/70), and CD8α (53-6.72). All antibodies were obtained from BioSource (Camarillo, Calif.). M450 anti-rat IgG-coated magnetic beads (Dynal, Oslo, Norway) were used to bind the antibodies and negative selection was accomplished using an MPC-1 magnetic concentrator. The enriched CD4^+ cells were then labeled for cell sorting with FITC-conjugated CD45RB (16A, Pharmingen, San Diego, Calif.) and PE-conjugated CD4 (CT-CD4, Caltag, Burlingame, Calif.). CD4^+ CD45RB^high cells were operationally defined as the upper 40% of CD45Rb-staining CD4^+ cells and sorted under sterile conditions by flow cytometry. Harvested cells were resuspended at 4×10^6/mL in PBS and injected 100 μL intraperitoneally into female C.B-17 SCID mice. Pyrimidine compounds of this invention (e.g., Compound 12) and/or vehicle was orally administered once a day, 5 days per week, starting the day following the transfer. The transplanted SCID mice were weighed weekly and their clinical condition was monitored.
Colon tissue samples were fixed in 10% buffered formalin and embedded in paraffin. Sections (4 μm) collected from ascending, transverse, and descending colon were cut and stained with hematoxylin and eosin. The severity of colitis was determined based on histological examination of the distal colon sections, whereby the extent of colonic inflammation was graded on a scale of 0-3 in each of four criteria: crypt elongation, cell infiltration, depletion of goblet cells, and the number of crypt abscesses.
LP lymphocytes were isolated from freshly obtained colonic specimens. After removal of payer's patches, the colon was washed in Ca/Mg-free HBSS, cut into 0.5 cm pieces and incubated twice in HBSS containing EDTA (0.75 mM), DTT (1 mM), and antibiotics (amphotericin 2.5 μg/mL, gentamicin 50 μg/mL from Sigma) at 37° C. for 15 min. Next, the tissue was digested further in RPMI containing 0.5 mg/mL collagenase D, 0.01 mg/mL DNase I (Boehringer Manheim), and antibiotics at 37° C. […]
To measure cytokine production, 48-well plates were coated with 10 μg/mL murine anti-CD3ε antibody (145-2C11) in carbonate buffer (PH 9.6) overnight at 4° C. […] Murine IFNγ was measured using an ELISA kit from Endogen (Cambridge, Mass.), according to the manufacturer's instructions.
The calculated colon-to-body weight ratio was consistent with the histological score, showing attenuation by treatment with the test compound.

IL-23 = test: Inhibition of IL-23 in stimulated human PBMC (p19 capture ELISA); type: cell-based
Source text: The level of inhibition of IL-23 inhibition by a compound of the invention can be measured by a similar assay in which human peripheral blood mononuclear cells (PBMC) or human monocytic cell line (THP-1) are stimulated with a combination of human interferon-γ (IFNγ) and lipopolysaccharide (LPS) or a combination of IFNγ and Staphylococcus aureus Cowan I (SAC) in the presence of a test compound. The level of inhibition of IL-23 production can be measured by determining the amount of p19 by using a sandwich ELISA assay with antibodies the recognize p19 subunit of IL-23. IC50 of the test compound can then be determined. One such assay is disclosed herein in Example 30.
Therefore, inhibition of IL-23 in addition to IL-12 is expected. In order to confirm the hypothesis, an assay was established to specifically detect IL-23 using polyclonal antibodies recognizing p19 (R&D Systems, MN), an IL-23 specific subunit. A 96-well plate was coated with the antibodies at 1 μg/ml, and after washing incubated with the supernatants of human peripheral blood mononuclear cells (PBMC). The culture was stimulated with 1 μg/ml of liposaccharide (LPS) (FIG. 2) or 0.025% of S. aureus Cowan I (SAC) (FIG. 1) in the presence of test compound after IFN-γ priming. The captured IL-23 was then detected by a biotinylated goat anti-human p40 antibody that binds to p40 subunit of human IL-12 and IL-23 as a monomer or in the context of the respective heterodimer (Part 840099 of product DY1240 from R&D Systems). The plate was developed by incubation with streptavidin-HRP and then substrate solution (R&D Systems Cat # DY999). Recombinant IL-23 (R&D Systems) was added as standard in the assay. The estimated detection range is from 0.1 to 10 ng/ml, and 1 ng/ml recombinant IL-12 heterodimer (Cell Sciences, MA) and p40 monomer (R&D Systems) were under detection limit. To compare with the inhibition of IL-23, the supernatant was also analyzed for IL-12 heterodimer and total p40 proteins using IL-12 specific ELISA kit (Cell Sciences) and p40 ELISA kit (R&D Systems) respectively.

Question: How did the arthritic score [1] turn out when `Cc1cccc(C=NNc2cc(N3CCOCC3)nc(OCCc3ccccn3)n2)c1` [Compound 12, N-(3-methyl-benzylidene)-N′-[6-morpholin-4-yl-2-(2-pyridin-2-yl-ethoxy)-pyrimidin-4-yl]-hydrazine] was run?
Answer: reproducibly reduced the arthritic score

Question: What about the development of polyarthritis [1] of the same compound?
Answer: delayed the development of polyarthritis in a dose-dependent manner

Question: What about the “% Deduction (net increase in colon-to-body weight ratio)” value [2] of the same compound?
Answer: about 30%

Question: What about the “IFNγ production by LP cells” value ([3]; LP cells ex vivo in response to anti-CD3 antibody and anti-CD28 antibody, 48 h) of the same compound?
Answer: greatly diminished the production

Question: What about the colon-to-body weight ratio ([3]; oral administration) of the same compound?
Answer: attenuation

Question: And the “colonic inflammation (histological analysis)” value ([3]; oral administration once a day, 5 days per week, compared to vehicle control)?
Answer: reduced colonic inflammation

Question: And the “suppressive effect on colonic inflammation at 10 mg/kg” value ([3]; oral, dose of 10 mg/kg)?
Answer: substantial reduction

Question: What about the “inhibition of IL-23” value (IL-23; IFN-γ/SAC and IFN-γ/LPS-stimulated human PBMC) of the same compound?
Answer: inhibited by compound 12 in a dose-dependent manner

Question: What about the “inhibitory activity against IL-23 compared with that against IL-12” value (IL-23; stimulated human PBMC) of the same compound?
Answer: slightly lower than that against IL-12

Question: And the “inhibitory activity against IL-23 compared with that against p40” value (IL-23; stimulated human PBMC)?
Answer: comparable to that against p40
